The values below are quoted from earlier work in patent publication US11478463B2, “Mast cell stabilizers for treatment of chronic inflammatory conditions” (Emergo Therapeutics, Inc., priority 2016, dated 2022).

Each structure is given as a SMILES string.

The conditions of data set [1]: patients.
For data set [2] the following is noted: in vivo.
For data set [3] the following is noted: ketotifen 2 mg per dose, twice daily.

Consider `O=C1Cc2ccccc2C(=C2CCNCC2)c2ccsc21` [norketotifen], for which, in data set [1], the drowsiness entry is on record as “does not cause drowsiness”. For the same compound, the “half-life relative to ketotifen” value in data set [2] is “longer half-life than ketotifen”.
In the case of `CN1CCC(=C2c3ccccc3CC(=O)c3sccc32)CC1` [ketotifen], the drowsiness entry in data set [1] is given as “causes extreme drowsiness in many patients”. In data set [3], the steady state level is approximately 2 ng/mL and the “time to approach steady state level” value is given as “at least 2.5 days”.
